melting point [°C] | SMILES
184 to 185 | O=C(Nc1cnc(-c2ccccc2)nc1C(=O)O)OCc1cc2cc(-c3ccccc3)ccc2o1 [Example 1, 2-Phenyl-5-(5-phenyl-benzofuran-2-ylmethoxycarbonylamino)-pyrimidine-4-carboxylic Acid]
220.6 to 220.8 | O=C(Nc1nn(-c2ccccc2)cc1C(=O)O)OCc1cc2cc(-c3ccccc3)ccc2o1 [Example 2, 1-Phenyl-3-(5-phenyl-benzofuran-2-ylmethoxycarbonylamino)-1H-pyrazole-4-carboxylic Acid]
235.7 to 238.9 | O=C(Nc1cnccc1C(=O)O)OCc1cc2cc(-c3ccccc3)ccc2o1 [Example 3, 3-(5-Phenyl-benzofuran-2-ylmethoxycarbonylamino)-isonicotinic Acid]

From US6569860B2, “Alkoxycarbonylamino heteroaryl carboxylic acid derivatives as IP antagonists” (Roćhe Palo Alto LLC, priority 2001, dated 2003)
